# According to paper PMC8303947, “Evaluation of Ruthenium(II) N-Heterocyclic Carbene Complexes as Antibacterial Agents and Inhibitors of Bacterial Thioredoxin Reductase” (Molecules, 2021):
# Where two headings read alike, the source gives them in different places.
# Columns and labels:
# [1] = tested on: S. aureus ATCC 43300 (MRSA); experiment: Antimicrobial microtiter plate MIC assay, S. aureus ATCC 43300 (MRSA); type: cell-based, Staphylococcus aureus; conditions: Gram-positive, Mueller Hinton broth, 16–18 h at 37 °C
# Experimental: (§1) The fungus Candida albicans was used as a non-bacterial reference organism. The broad-spectrum antibiotic Ciprofloxacin was used as a reference drug.
# (§2) Compounds were tested in a microtiter plate assay according to CLSI guidelines against E. coli DSM 30083, A. baumannii DSM 30007, P. aeruginosa DSM 50071, B. subtilis DSM 402, S. aureus DSM 20231, S. aureus ATCC 43300 (MRSA), and C. albicans, as described previously. E. coli, A. baumannii, S. aureus, and B. subtilis were grown in Mueller Hinton broth, P. aeruginosa in cation-adjusted Mueller Hinton II, and C. albicans DSM1386 in Sabouraud broth. Compounds were dissolved in DMSO at 10 mg/mL. Starting from a 10 mg/mL stock solution, serial dilutions in culture media were prepared with the Tecan Freedom Evo 75 liquid handling workstation (Tecan, Männedorf, Switzerland), covering a range from 512 to 0.5 µg/mL. Assay volumes were 200 µL per well. After inoculating with 5 × 10^5 bacteria/mL from late exponential cultures grown in the same media, cultures were incubated for 16–18 h at 37 °C. The lowest compound concentration inhibiting visible bacterial growth was recorded as MIC.
# B. subtilis 168 = experiment: Antimicrobial microtiter plate MIC assay, B. subtilis; type: cell-based, Bacillus subtilis; conditions: Gram-positive, B. subtilis 168 (DSM 402), Mueller Hinton broth, 16–18 h at 37 °C
# Experimental: as §1, §2
# A. baumannii DSM 30007 = experiment: Antimicrobial microtiter plate MIC assay, A. baumannii; type: cell-based, Acinetobacter baumannii; conditions: Mueller Hinton broth, 16–18 h at 37 °C
# Experimental: as §1, §2
# S. aureus DSM 20231 = experiment: Antimicrobial microtiter plate MIC assay, S. aureus DSM 20231; type: cell-based, Staphylococcus aureus; conditions: Mueller Hinton broth, 16–18 h at 37 °C
# Experimental: as §1, §2
# C. albicans DSM 1386 = experiment: Antimicrobial microtiter plate MIC assay, C. albicans; type: cell-based, Candida albicans; conditions: Sabouraud broth
# Experimental: as §1
# E. coli, A. baumannii, S. aureus, and B. subtilis were grown in Mueller Hinton broth, P. aeruginosa in cation-adjusted Mueller Hinton II, and C. albicans DSM1386 in Sabouraud broth. Compounds were dissolved in DMSO at 10 mg/mL. […] Assay volumes were 200 µL per well. After inoculating with 5 × 10^5 bacteria/mL from late exponential cultures grown in the same media, cultures were incubated for 16–18 h at 37 °C. The lowest compound concentration inhibiting visible bacterial growth was recorded as MIC.
# P. aeruginosa DSM 50071 = experiment: Antimicrobial microtiter plate MIC assay, P. aeruginosa; type: cell-based, Pseudomonas aeruginosa; conditions: cation-adjusted Mueller Hinton II, 16–18 h at 37 °C
# Experimental: as §1, §2
# E. coli DSM 30083 = experiment: Antimicrobial microtiter plate MIC assay, E. coli; type: cell-based, Escherichia coli; conditions: Mueller Hinton broth, 16–18 h at 37 °C
# Experimental: as §1, §2
# E. coli TrxR = target: T1, E. coli TrxR (Escherichia coli, UniProt P0A9P4); experiment: Inhibition of bacterial TrxR (E. coli), 5,5-dithiobis-(2-nitrobenzoic acid) reduction assay; type: biochemical
# T1 construct: purchased Merck (Darmstadt, Germany)
# Experimental: The inhibition of TrxR has been considered as a novel mode of action for antibiotics and in our previous report, the relevance for gold NHC complexes had been shown.
# The TrxR (E. coli) inhibition assay was performed according to a previously published procedure. It is partly based on the procedure developed by Lu et al. and detects the formation of 5-TNB (5-thionitrobenzoic acid). Solutions of E. coli TrxR (35.4 U/mL) and of its substrate thioredoxin (Trx) E. coli (156 µg/mL) (both purchased from Merck (Darmstadt, Germany) and diluted with distilled water) and fresh stock solutions of the test compounds (in DMF) were prepared. TE buffer (Tris-HCl 50 mM, EDTA 1 mM, pH 7.5) containing graded concentrations of the respective compounds (20 µL) or buffer without compounds (20 µL, as control) were mixed with TrxR solution (10 µL), Trx solution (10 µL), and a solution of NADPH (200 µM) in TE buffer (100 µL) in a well on a 96-well plate. As blank solution, 200 µM NADPH in TE buffer (100 µL) mixed with a DMF/buffer mixture (40 µL) was used (final concentrations of DMF: 0.5% v/v). The solutions on the 96-well plates were incubated for 75 min at 25 °C with moderate shaking. […] The highest test compound concentration was used and the enzyme solution was replaced by TE buffer for this purpose.
# [2] = Acinetobacter baumannii, DSM30007, Gram-negative
# [3] = Staphylococcus aureus, DSM20231, Gram-positive
# [4] = purified E. coli TrxR, DTNB reduction, 75 min preincubation at 25 °C, mean (±SD) of three experiments, read-out: IC50 inhibition of E. coli TrxR
# [5] = Candida albicans, DSM1386, fungus
# [6] = Pseudomonas aeruginosa, DSM50071, Gram-negative
# [7] = Escherichia coli, DSM30083, Gram-negative
# T1 sequence (P0A9P4 whole entry): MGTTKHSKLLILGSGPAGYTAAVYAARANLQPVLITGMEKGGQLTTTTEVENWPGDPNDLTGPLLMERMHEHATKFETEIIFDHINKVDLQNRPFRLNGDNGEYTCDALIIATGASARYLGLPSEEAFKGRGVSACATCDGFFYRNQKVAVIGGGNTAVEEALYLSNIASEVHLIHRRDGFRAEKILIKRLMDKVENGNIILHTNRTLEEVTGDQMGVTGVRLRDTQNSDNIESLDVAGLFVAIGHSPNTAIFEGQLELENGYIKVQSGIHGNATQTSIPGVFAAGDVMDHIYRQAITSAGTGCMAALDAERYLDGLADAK
Molecule,MIC [1],MIC (B. subtilis 168),MIC (A. baumannii DSM 30007; Gram-negative),MIC (S. aureus DSM 20231; Gram-positive),MIC (C. albicans DSM 1386; fungus),MIC (P. aeruginosa DSM 50071; Gram-negative),MIC (E. coli DSM 30083; Gram-negative),MIC ([1]; Staphylococcus aureus),"MIC (B. subtilis 168; Bacillus subtilis, DSM402)",MIC (A. baumannii DSM 30007; [2]),MIC (S. aureus DSM 20231; [3]),IC50 (E. coli TrxR; [4]),MIC (C. albicans DSM 1386; [5]),MIC (P. aeruginosa DSM 50071; [6]),MIC (E. coli DSM 30083; [7]),IC50 (E. coli TrxR)
"1,3-Dibenzyl-5-chloro-1H-benzimidazolium bromide [2e]",77.7 µM,155.3 µM,1242.6 µM,77.7 µM,1242.6 µM,1242.6 µM,1242.6 µM,–,–,–,–,–,–,–,–,–
"1,3-Dibenzyl-5-fluoro-1H-benzimidazolium bromide [2d]",161.1 µM,322.2 µM,>1288.7 µM,161.1 µM,>1288.7 µM,>1288.7 µM,1288.7 µM,–,–,–,–,–,–,–,–,–
"1,3-Dibenzyl-5-methoxy-1H-benzimidazolium bromide [2c]",19.5 µM,78.2 µM,1250.8 µM,19.5 µM,1250.8 µM,1250.8 µM,1250.8 µM,–,–,–,–,–,–,–,–,–
c1ccc(Cn2c[n+](Cc3ccccc3)c3ccccc32)cc1 [2a],–,–,–,–,–,–,–,42.2 µM,169 µM,1350 µM,42.2 µM,> 100 µM,1350 µM,1350 µM,1350 µM,–
"Cc1ccc2c(c1)n(Cc1ccccc1)c[n+]2Cc1ccccc1 [2b, 1,3-Dibenzyl-5-methyl-1H-benzimidazolium bromide]",–,–,–,–,–,–,–,163 µM,651 µM,1300 µM,81.4 µM,–,1300 µM,1300 µM,1300 µM,> 100 µM
"Brc1ccc2c(c1)n(Cc1ccccc1)c[n+]2Cc1ccccc1 [2f, 1,3-Dibenzyl-5-bromo-1H-benzimidazolium bromide]",–,–,–,–,–,–,–,69.8 µM,279 µM,> 1120 µM,140 µM,–,> 1120 µM,> 1120 µM,> 1120 µM,> 100 µM
"Cc1ccc(C(C)C)cc1.Cc1ccc2c(c1)n(Cc1ccccc1)[c](=[Ru]([Cl])[Cl])n2Cc1ccccc1 [3b, (1,3-Dibenzyl-5-methyl-1H-benzimidazol-2-ylidene)-dichlorido-(η^6-p-cymene)ruthenium(II)]",25.9 µM,25.9 µM,413.8 µM,25.9 µM,>827.7 µM,413.8 µM,827.7 µM,–,–,–,–,14 µM,–,–,–,–
"COc1ccc2c(c1)n(Cc1ccccc1)[c](=[Ru]([Cl])[Cl])n2Cc1ccccc1.Cc1ccc(C(C)C)cc1 [3c, (1,3-Dibenzyl-5-methoxy-1H-benzimidazol-2-ylidene)-dichlorido-(η^6-p-cymene)ruthenium(II)]",25.2 µM,25.2 µM,>806.8 µM,25.2 µM,>806.8 µM,>806.8 µM,>806.8 µM,–,–,–,–,–,–,–,–,–
"Cc1ccc(C(C)C)cc1.Fc1ccc2c(c1)n(Cc1ccccc1)[c](=[Ru]([Cl])[Cl])n2Cc1ccccc1 [3d, (1,3-Dibenzyl-5-fluoro-1H-benzimidazol-2-ylidene)-dichlorido-(η^6-p-cymene)ruthenium(II)]",25.7 µM,25.7 µM,205.6 µM,25.7 µM,>822.4 µM,>822.4 µM,822.4 µM,–,–,–,–,–,–,–,–,–
"Cc1ccc(C(C)C)cc1.Clc1ccc2c(c1)n(Cc1ccccc1)[c](=[Ru]([Cl])[Cl])n2Cc1ccccc1 [3e, (1,3-Dibenzyl-5-chloro-1H-benzimidazol-2-ylidene)-dichlorido-(η^6-p-cymene)ruthenium(II)]",12.5 µM,25.1 µM,>802.4 µM,25.1 µM,>802.4 µM,>802.4 µM,401.2 µM,–,–,–,–,–,–,–,–,–
"Cc1ccc(C(C)C)cc1.[Cl][Ru]([Cl])=[c]1n(Cc2ccccc2)c2ccc(Br)cc2n1Cc1ccccc1 [3f, (1,3-Dibenzyl-5-bromo-1H-benzimidazol-2-ylidene)-dichlorido-(η^6-p-cymene)ruthenium(II)]",11.7 µM,11.7 µM,>749.1 µM,23.4 µM,>749.1 µM,>749.1 µM,374.6 µM,–,–,–,–,> 100 µM,–,–,–,–
"O=C(O)c1cn(C2CC2)c2cc(N3CCNCC3)c(F)cc2c1=O [Ciprofloxacin, reference compound]",–,–,–,–,–,–,–,12 µM,24 µM,24 µM,12 µM,–,–,1.2 µM,1.5 µM,–
